Experimental data published in patent US20040087633A1, “Methylidene oxazolidinone compound and preparation method thereof” (Korea Institute of Science and Technology, priority 2002, published 2004).
Like-named read-outs stand apart in the source and are kept apart here.

Tests used:
Experiment in all cases: Anti-microbial activity test in vitro (agar dilution MIC)
S. pyogenes C6003 = type: cell-based; conditions: for MIC: Streptococcus pyogenes, read-out: Minimum inhibition concentration (MIC)
Procedure: (§1) Anti-microbial activity test in vitro
(§2) Strains were cultivated for 18 hours at 37° C. in Agar Dilution method using Mueller Hinton Agar, and then plane plates inoculated with the strains by diluting them two times gradually were aligned in a row. Minimum inhibition concentration (MIC, μg/ml) for the representative compounds of the present invention, Linezolid (LZD) and vancomycin (VAN) were decided through visual observation, and the results are shown in the following tables 2 and 3.

S. epidermidis C2230 = type: cell-based; conditions: for MIC: Staphylococcus epidermidis, read-out: Minimum inhibition concentration (MIC)
Procedure: as §1, §2

E. faecalis C6291 = type: cell-based; conditions: for MIC: Enterococcus faecalis, read-out: Minimum inhibition concentration (MIC)
Procedure: as §1, §2

S. pyogenes C6012 = type: cell-based; conditions: for MIC: Streptococcus pyogenes, read-out: Minimum inhibition concentration (MIC)
Procedure: as §1, §2

E. faecium C2252 = type: cell-based; conditions: for MIC: Enterococcus faecium, read-out: Minimum inhibition concentration (MIC)
Procedure: as §1, §2

S. pyogenes ATCC8668 = type: cell-based; conditions: for MIC: Streptococcus pyogenes, read-out: Minimum inhibition concentration (MIC)
Procedure: as §1, §2

S. aureus ATCC 29213 = type: cell-based; conditions: Agar Dilution method, Mueller Hinton Agar, 18 hours at 37° C.
Procedure: as §1, §2

E. faecalis ATCC29212 = type: cell-based; conditions: for MIC: Enterococcus faecalis, read-out: Minimum inhibition concentration (MIC)
Procedure: as §1, §2

E. faecium C6301 = type: cell-based; conditions: for MIC: Enterococcus faecium, read-out: Minimum inhibition concentration (MIC)
Procedure: as §1, §2

S. epidermidis ATCC12228 = type: cell-based; conditions: for MIC: Staphylococcus epidermidis, read-out: Minimum inhibition concentration (MIC)
Procedure: as §1, §2

S. epidermidis C2235 = type: cell-based; conditions: for MIC: Staphylococcus epidermidis, read-out: Minimum inhibition concentration (MIC)
Procedure: as §1, §2

E. faecalis C6288 = type: cell-based; conditions: for MIC: Enterococcus faecalis, read-out: Minimum inhibition concentration (MIC)
Procedure: as §1, §2

CRSA C6043 = type: cell-based, Staphylococcus aureus; conditions: for MIC: Staphylococcus aureus, read-out: Minimum inhibition concentration (MIC)
Procedure: as §1, §2

MSSA C2214 = type: cell-based, Staphylococcus aureus; conditions: for MIC: Staphylococcus aureus, read-out: Minimum inhibition concentration (MIC)
Procedure: as §1, §2

MSSA C7142 = type: cell-based, Staphylococcus aureus; conditions: for MIC: Staphylococcus aureus, read-out: Minimum inhibition concentration (MIC)
Procedure: as §1, §2

MRSA C2207 = type: cell-based, Staphylococcus aureus; conditions: for MIC: Staphylococcus aureus, read-out: Minimum inhibition concentration (MIC)
Procedure: as §1, §2

MRSA C6068 = type: cell-based, Staphylococcus aureus; conditions: for MIC: Staphylococcus aureus, read-out: Minimum inhibition concentration (MIC)
Procedure: as §1, §2

CRSA C1062 = type: cell-based, Staphylococcus aureus; conditions: for MIC: Staphylococcus aureus, read-out: Minimum inhibition concentration (MIC)
Procedure: as §1, §2

MRSA C5100 = type: cell-based, Staphylococcus aureus; conditions: for MIC: Staphylococcus aureus, read-out: Minimum inhibition concentration (MIC)
Procedure: as §1, §2

VRE C6487 = type: cell-based, Enterococcus faecium; conditions: for MIC: Enterococcus, read-out: Minimum inhibition concentration (MIC)
Procedure: as §1, §2

VRE C6488 = type: cell-based, Enterococcus faecium; conditions: for MIC: Enterococcus, read-out: Minimum inhibition concentration (MIC)
Procedure: as §1, §2

[1] = S. pyogenes C6003, Agar Dilution method, Mueller Hinton Agar, 18 hours at 37° C.
[2] = S. epidermidis C2230, Agar Dilution method, Mueller Hinton Agar, 18 hours at 37° C.
[3] = E. faecalis C6291, Agar Dilution method, Mueller Hinton Agar, 18 hours at 37° C.
[4] = S. pyogenes C6012, Agar Dilution method, Mueller Hinton Agar, 18 hours at 37° C.
[5] = E. faecium C2252, Agar Dilution method, Mueller Hinton Agar, 18 hours at 37° C.
[6] = S. pyogenes ATCC8668, Agar Dilution method, Mueller Hinton Agar, 18 hours at 37° C.
[7] = E. faecalis ATCC29212, Agar Dilution method, Mueller Hinton Agar, 18 hours at 37° C.
[8] = E. faecium C6301, Agar Dilution method, Mueller Hinton Agar, 18 hours at 37° C.
[9] = S. epidermidis ATCC12228, Agar Dilution method, Mueller Hinton Agar, 18 hours at 37° C.
[10] = S. epidermidis C2235, Agar Dilution method, Mueller Hinton Agar, 18 hours at 37° C.
[11] = E. faecalis C6288, Agar Dilution method, Mueller Hinton Agar, 18 hours at 37° C.
[12] = CRSA C6043, Agar Dilution method, Mueller Hinton Agar, 18 hours at 37° C.
[13] = MSSA C2214, Agar Dilution method, Mueller Hinton Agar, 18 hours at 37° C.
[14] = MSSA C7142, Agar Dilution method, Mueller Hinton Agar, 18 hours at 37° C.
[15] = MRSA C2207, Agar Dilution method, Mueller Hinton Agar, 18 hours at 37° C.
[16] = MRSA C6068, Agar Dilution method, Mueller Hinton Agar, 18 hours at 37° C.
[17] = CRSA C1062, Agar Dilution method, Mueller Hinton Agar, 18 hours at 37° C.
[18] = MRSA C5100, Agar Dilution method, Mueller Hinton Agar, 18 hours at 37° C.
[19] = VRE C6487, Agar Dilution method, Mueller Hinton Agar, 18 hours at 37° C.
[20] = VRE C6488, Agar Dilution method, Mueller Hinton Agar, 18 hours at 37° C.

CCOC(=O)C(C#N)=C1CCN(c2ccc(N3C[C@H](CNC(C)=O)OC3=O)cc2F)CC1 [Compound 7, N-[[(5S)-3-[3-fluoro-4-((4-(1-ethoxycarbonyl-1-cyano)-methylidene)piperidinyl)phenyl]-2-oxo-5-oxazolidinyl]methyl]acetamide]
2 µg/mL: Minimum inhibition concentration (MIC) (S. epidermidis C2230; [2]) | Minimum inhibition concentration (MIC) (E. faecium C6301; [8]) | Minimum inhibition concentration (MIC) (S. epidermidis C2235; [10]) | Minimum inhibition concentration (MIC) (VRE C6487; [19]) | Minimum inhibition concentration (MIC) (VRE C6488; [20])
4 µg/mL: Minimum inhibition concentration (MIC) (S. pyogenes C6003; [1]) | Minimum inhibition concentration (MIC) (E. faecalis C6291; [3]) | Minimum inhibition concentration (MIC) (E. faecium C2252; [5]) | Minimum inhibition concentration (MIC) (S. aureus ATCC 29213) | Minimum inhibition concentration (MIC) (E. faecalis ATCC29212; [7]) | Minimum inhibition concentration (MIC) (E. faecalis C6288; [11]) | Minimum inhibition concentration (MIC) (CRSA C6043; [12]) | Minimum inhibition concentration (MIC) (MSSA C2214; [13]) | Minimum inhibition concentration (MIC) (MSSA C7142; [14]) | Minimum inhibition concentration (MIC) (MRSA C2207; [15]) | Minimum inhibition concentration (MIC) (MRSA C6068; [16]) | Minimum inhibition concentration (MIC) (CRSA C1062; [17]) | Minimum inhibition concentration (MIC) (MRSA C5100; [18])
1 µg/mL: Minimum inhibition concentration (MIC) (S. pyogenes C6012; [4]) | Minimum inhibition concentration (MIC) (S. pyogenes ATCC8668; [6]) | Minimum inhibition concentration (MIC) (S. epidermidis ATCC12228; [9])

CC(=O)NC[C@H]1CN(c2ccc(N3CCC(=CC#N)CC3)c(F)c2)C(=O)O1 [Compound 8, N-[[(5S)-3-[3-fluoro-4-(4-cyanomethylidenepiperidinyl)-phenyl]-2-oxo-5-oxazolidinyl]methyl]acetamide]
1 µg/mL: Minimum inhibition concentration (MIC) (S. epidermidis C2235; [10]) | Minimum inhibition concentration (MIC) (MRSA C6068; [16])
2 µg/mL: Minimum inhibition concentration (MIC) (S. pyogenes C6003; [1]) | Minimum inhibition concentration (MIC) (S. epidermidis C2230; [2]) | Minimum inhibition concentration (MIC) (E. faecalis C6291; [3]) | Minimum inhibition concentration (MIC) (E. faecium C2252; [5]) | Minimum inhibition concentration (MIC) (S. aureus ATCC 29213) | Minimum inhibition concentration (MIC) (E. faecalis ATCC29212; [7]) | Minimum inhibition concentration (MIC) (E. faecium C6301; [8]) | Minimum inhibition concentration (MIC) (E. faecalis C6288; [11]) | Minimum inhibition concentration (MIC) (CRSA C6043; [12]) | Minimum inhibition concentration (MIC) (MSSA C7142; [14]) | Minimum inhibition concentration (MIC) (MRSA C2207; [15]) | Minimum inhibition concentration (MIC) (CRSA C1062; [17]) | Minimum inhibition concentration (MIC) (MRSA C5100; [18])
4 µg/mL: Minimum inhibition concentration (MIC) (MSSA C2214; [13]) | Minimum inhibition concentration (MIC) (VRE C6487; [19]) | Minimum inhibition concentration (MIC) (VRE C6488; [20])
0.5 µg/mL: Minimum inhibition concentration (MIC) (S. pyogenes C6012; [4]) | Minimum inhibition concentration (MIC) (S. pyogenes ATCC8668; [6]) | Minimum inhibition concentration (MIC) (S. epidermidis ATCC12228; [9])

CC(=O)NC[C@H]1CN(c2ccc(N3CCOCC3)c(F)c2)C(=O)O1 [LZD, Linezolid, reference compound]
4 µg/mL: MIC (E. faecalis ATCC29212; [7]) | MIC (MSSA C2214; [13]) | MIC (MSSA C7142; [14]) | MIC (MRSA C2207; [15]) | MIC (CRSA C1062; [17])
2 µg/mL: MIC (S. pyogenes C6003; [1]) | MIC (S. epidermidis C2230; [2]) | MIC (E. faecalis C6291; [3]) | MIC (E. faecium C2252; [5]) | MIC (E. faecium C6301; [8]) | MIC (S. epidermidis C2235; [10]) | MIC (E. faecalis C6288; [11]) | MIC (CRSA C6043; [12]) | MIC (MRSA C6068; [16]) | MIC (MRSA C5100; [18]) | MIC (VRE C6487; [19]) | MIC (VRE C6488; [20])
0.5 µg/mL: MIC (S. pyogenes C6012; [4]) | MIC (S. pyogenes ATCC8668; [6]) | MIC (S. epidermidis ATCC12228; [9])

CN[C@H](CC(C)C)C(=O)N[C@H]1C(=O)N[C@@H](CC(N)=O)C(=O)N[C@H]2C(=O)N[C@H]3C(=O)N[C@H](C(=O)N[C@H](C(=O)O)c4cc(O)cc(O)c4-c4cc3ccc4O)[C@H](O)c3ccc(c(Cl)c3)Oc3cc2cc(c3O[C@@H]2O[C@H](CO)[C@@H](O)[C@H](O)[C@H]2O[C@H]2C[C@](C)(N)[C@H](O)[C@H](C)O2)Oc2ccc(cc2Cl)[C@H]1O [VAN, vancomycin, reference compound]
2 µg/mL: MIC (S. epidermidis C2230; C2230, 18 h) | MIC (E. faecalis C6291; C6291, 18 h) | MIC (S. epidermidis C2235; C2235, 18 h) | MIC (E. faecalis C6288; C6288, 18 h) | MIC (CRSA C6043; 18 h) | MIC (MSSA C7142; MSSA, 18 h) | MIC (CRSA C1062; 18 h) | MIC (MRSA C5100; MRSA, 18 h)
0.5 µg/mL: MIC (S. pyogenes C6012; C6012, 18 h)
> 32 µg/mL: MIC (VRE C6487; VRE, 18 h) | MIC (VRE C6488; VRE, 18 h)
1 µg/mL: MIC (E. faecium C2252; C2252, 18 h) | MIC (E. faecium C6301; C6301, 18 h) | MIC (S. epidermidis ATCC12228; ATCC12228, 18 h) | MIC (MSSA C2214; MSSA, 18 h) | MIC (MRSA C2207; MRSA, 18 h) | MIC (MRSA C6068; MRSA, 18 h)
0.12 µg/mL: MIC (S. pyogenes ATCC8668; ATCC8668, 18 h)
4 µg/mL: MIC (S. pyogenes C6003; C6003, 18 h) | MIC (E. faecalis ATCC29212; ATCC29212, 18 h)
